Broadly, the IC50 is the point on the concentration scale where inhibition reaches its midpoint. A lower IC50 goes with greater potency.

The test system of the first assay is KRAS G12V dependent lung adenocarcinoma cell line, NCI-H441. Kind of assay: Cellular pERK (Thr202/Tyr204) FRET/HTRF assay. Type of assay: cell-based. As to conditions: Homo sapiens, NCI-H441, cellular pERK HTRF, NCI-H441 (KRAS G12V) cells. In outline:
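NCI-H441 cells (KRAS G12V) were seeded and grown overnight at 37 °C, 5% CO2, then treated with compound in DMSO for 1 hr. Lysates were probed with a Eu3+-cryptate/d2 antibody sandwich against pERK1/2 Thr202/Tyr204 and read by HTRF at 665 nm; IC50 from curve fitting.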
On the technique in general: Time-resolved FRET reads energy transfer from a long-lived donor to a nearby acceptor.
As for `[2H]C([2H])(Oc1nc(N2CCCC[C@H]3[C@H](F)[C@H]32)c2cnc(-c3cc(N)cc4ccc(F)c(C#C)c34)c(C)c2n1)[C@@]12CCCN1C[C@H](F)C2` [Example 460, 5-Ethynyl-6-fluoro-4-(4-((1S,7R,8S)-8-fluoro-2-azabicyclo[5.1.0]octan-2-yl)-2-(((2R,7aS)-2-fluorotetrahydro-1H-pyrrolizin-7a(5H)-yl)methoxy-d2)-8-methylpyrido[4,3-d]pyrimidin-7-yl)naphthalen-2-amine], the concentration for half-maximal inhibition (IC50) is under 50 nM.
`[2H]C([2H])(Oc1nc(N2CCCC[C@H]3[C@H](F)[C@H]32)c2cnc(-c3cc(O)cc4ccc(F)c(C#C)c34)c(C)c2n1)[C@@]12CCCN1CC(=C)C2` [Example 461, 5-Ethynyl-6-fluoro-4-(4-((1S,7R,8S)-8-fluoro-2-azabicyclo[5.1.0]octan-2-yl)-8-methyl-2-(((S)-2-methylenetetrahydro-1H-pyrrolizin-7a(5H)-yl)methoxy-d2)pyrido[4,3-d]pyrimidin-7-yl)naphthalen-2-ol] returned an IC50 of under 50 nM.
On the same count and under the same terms, then `[2H]C([2H])(Oc1nc(N2CCCC[C@H]3[C@H](F)[C@H]32)c2cnc(-c3cc(O)cc4ccc(F)c(C#C)c34)c(C)c2n1)[C@]12CC(=C)CN1CCC21CC1` [Example 462, 5-Ethynyl-6-fluoro-4-(4-((1S,7R,8S)-8-fluoro-2-azabicyclo[5.1.0]octan-2-yl)-8-methyl-2-(((R)-6′-methylenetetrahydrospiro[cyclopropane-1,1′-pyrrolizin]-7a′(5′H)-yl)methoxy-d2)pyrido[4,3-d]pyrimidin-7-yl)naphthalen-2-ol], with under 50 nM; and `[2H]C([2H])(Oc1nc(N2CCCC[C@H]3[C@H](F)[C@H]32)c2cnc(-c3cc(O)cc4ccc(F)c(C#C)c34)c(C)c2n1)[C@@]12CCCN1C[C@H](F)C2` [Example 463, 5-Ethynyl-6-fluoro-4-(4-((1S,7R,8S)-8-fluoro-2-azabicyclo[5.1.0]octan-2-yl)-2-(((2R,7aS)-2-fluorotetrahydro-1H-pyrrolizin-7a(5H)-yl)methoxy-d2)-8-methylpyrido[4,3-d]pyrimidin-7-yl)naphthalen-2-ol], with under 50 nM; and `[2H]C([2H])(Oc1nc(N2CCCC[C@H]3[C@H](Cl)[C@H]32)c2cnc(-c3cc(N)cc4ccc(F)c(C#C)c34)c(C)c2n1)[C@@]12CCCN1C[C@H](F)C2` [Example 464, 4-(4-((1S,7R,8S)-8-chloro-2-azabicyclo[5.1.0]octan-2-yl)-2-(((2R,7aS)-2-fluorotetrahydro-1H-pyrrolizin-7a(5H)-yl)methoxy-d2)-8-methylpyrido[4,3-d]pyrimidin-7-yl)-5-ethynyl-6-fluoronaphthalen-2-amine], with under 50 nM.
In turn, `[2H]C([2H])(Oc1nc(N2CCCC[C@@H]3[C@@H](Cl)[C@@H]32)c2cnc(-c3cc(N)cc4ccc(F)c(C#C)c34)c(C)c2n1)[C@@]12CCCN1C[C@H](F)C2` [Example 465, 4-(4-((1R,7S,8R)-8-chloro-2-azabicyclo[5.1.0]octan-2-yl)-2-(((2R,7aS)-2-fluorotetrahydro-1H-pyrrolizin-7a(5H)-yl)methoxy-d2)-8-methylpyrido[4,3-d]pyrimidin-7-yl)-5-ethynyl-6-fluoronaphthalen-2-amine] returned an IC50 of 500 to 10000 nM.
The same measure, in the same setting: then `[2H]C([2H])(Oc1nc(N2CCOC[C@H]3[C@H](F)[C@H]32)c2cc(Cl)c(-c3ccc(F)c4sc(N)c(C#N)c34)c(C)c2n1)[C@@]12CCCN1C[C@H](F)C2` [Example 470, 2-amino-4-(6-chloro-4-((1S,7S,8S)-8-fluoro-5-oxa-2-azabicyclo[5.1.0]octan-2-yl)-2-(((2R,7aS)-2-fluorotetrahydro-1H-pyrrolizin-7a(5H)-yl)methoxy-d2)-8-methylquinazolin-7-yl)-7-fluorobenzo[b]thiophene-3-carbonitrile], with under 50 nM.
Regarding `[2H]C([2H])(Oc1nc(N2CCOC[C@H]3[C@H](F)[C@H]32)c2cnc(-c3cc(O)cc4ccc(F)c(C#C)c34)c(C)c2n1)[C@@]12CCCN1[C@H](C)[C@H](F)C2` [Example 471, 5-ethynyl-6-fluoro-4-(2-(((2R,3R,7aS)-2-fluoro-3-methyltetrahydro-1H-pyrrolizin-7a(5H)-yl)methoxy-d2)-4-((1S,7S,8S)-8-fluoro-5-oxa-2-azabicyclo[5.1.0]octan-2-yl)-8-methylpyrido[4,3-d]pyrimidin-7-yl)naphthalen-2-ol], the IC50 was under 50 nM.
Compound `[2H]C([2H])(Oc1nc(N2CCOC[C@H]3[C@H](F)[C@H]32)c2cnc(-c3cc(O)cc4ccc(F)c(C#C)c34)c(F)c2n1)[C@@]12CCCN1[C@H](C)[C@H](F)C2` [Example 472, 5-ethynyl-6-fluoro-4-(8-fluoro-2-(((2R,3R,7aS)-2-fluoro-3-methyltetrahydro-1H-pyrrolizin-7a(5H)-yl)methoxy-d2)-4-((1S,7S,8S)-8-fluoro-5-oxa-2-azabicyclo[5.1.0]octan-2-yl)pyrido[4,3-d]pyrimidin-7-yl)naphthalen-2-ol] returned an IC50 of under 50 nM.
Compound `[2H]C([2H])(Oc1nc(N2CCCC[C@H]3[C@H](F)[C@H]32)c2cnc(-c3cc(O)cc4ccc(F)c(C#C)c34)c(C)c2n1)[C@@]12CCCN1[C@H](C)[C@H](F)C2` [Example 473, 5-ethynyl-6-fluoro-4-(2-(((2R,3R,7aS)-2-fluoro-3-methyltetrahydro-1H-pyrrolizin-7a(5H)-yl)methoxy-d2)-4-((1S,7R,8S)-8-fluoro-2-azabicyclo[5.1.0]octan-2-yl)-8-methylpyrido[4,3-d]pyrimidin-7-yl)naphthalen-2-ol] displayed an IC50 of under 50 nM.
For the compound `[2H]C([2H])(Oc1nc(N2CCCC[C@H]3[C@H](F)[C@H]32)c2cnc(-c3cc(O)cc4ccc(F)c(C#C)c34)c(F)c2n1)[C@@]12CCCN1[C@H](C)[C@H](F)C2` [Example 474, 5-ethynyl-6-fluoro-4-(8-fluoro-2-(((2R,3R,7aS)-2-fluoro-3-methyltetrahydro-1H-pyrrolizin-7a(5H)-yl)methoxy-d2)-4-((1S,7R,8S)-8-fluoro-2-azabicyclo[5.1.0]octan-2-yl)pyrido[4,3-d]pyrimidin-7-yl)naphthalen-2-ol], the IC50 was under 50 nM.
`[2H]C([2H])(Oc1nc(N2CCOC[C@H]3[C@H](Cl)[C@H]32)c2cnc(-c3cc(O)cc4ccc(F)c(C#C)c34)c(F)c2n1)[C@@]12CCCN1[C@H](C)[C@H](F)C2` [Example 475, 4-(4-((1S,7S,8S)-8-chloro-5-oxa-2-azabicyclo[5.1.0]octan-2-yl)-8-fluoro-2-(((2R,3R,7aS)-2-fluoro-3-methyltetrahydro-1H-pyrrolizin-7a(5H)-yl)methoxy-d2)pyrido[4,3-d]pyrimidin-7-yl)-5-ethynyl-6-fluoronaphthalen-2-ol] displayed an IC50 of under 50 nM.
On to `C#Cc1c(F)ccc2cc(N)cc(-c3ncc4c(N5CCOC[C@H]6[C@H](F)[C@H]65)nc(OCC56CCN5CC(F)(F)C6)nc4c3F)c12` (stereo partly drawn) [Example 476, 4-(2-((3,3-difluoro-1-azabicyclo[3.2.0]heptan-5-yl)methoxy)-8-fluoro-4-((1S,7S,8S)-8-fluoro-5-oxa-2-azabicyclo[5.1.0]octan-2-yl)pyrido[4,3-d]pyrimidin-7-yl)-5-ethynyl-6-fluoronaphthalen-2-amine], for which the IC50 was under 50 nM.
Regarding `C#Cc1c(F)ccc2cc(N)cc(-c3ncc4c(N5CCOC[C@H]6[C@H](F)[C@H]65)nc(OCC5CCC6COCCN65)nc4c3F)c12` (stereo partly drawn) [Example 477, 5-ethynyl-6-fluoro-4-(8-fluoro-4-((1S,7S,8S)-8-fluoro-5-oxa-2-azabicyclo[5.1.0]octan-2-yl)-2-((hexahydro-1H-pyrrolo[2,1-c][1,4]oxazin-6-yl)methoxy)pyrido[4,3-d]pyrimidin-7-yl)naphthalen-2-amine], the IC50 is under 50 nM.

Staying with this assay, now noted: cellular pERK HTRF, NCI-H441 (KRAS G12V) cells.
Compound `[2H]C([2H])(Oc1nc(N2CCOC[C@H]3[C@H](F)[C@H]32)c2cc(F)c(-c3cc(O)cc4ccc(F)c(C#C)c34)c(C)c2n1)[C@@]12CCCN1C[C@H](F)C2` [Example 469, 5-ethynyl-6-fluoro-4-((S)-6-fluoro-4-((1S,7S,8S)-8-fluoro-5-oxa-2-azabicyclo[5.1.0]octan-2-yl)-2-(((2R,7aS)-2-fluorotetrahydro-1H-pyrrolizin-7a(5H)-yl)methoxy-d2)-8-methylquinazolin-7-yl)naphthalen-2-ol] displayed an IC50 of under 50 nM.

The values are drawn from patent publication US20250282799A1, “SUBSTITUTED PYRIDO[4,3-d]PYRIMIDINES AS KRAS MODULATORS” (Alterome Therapeutics, Inc., priority 2023, published 2025).
